From patent US4898859A, “2-Oxa-isocephem compounds and compositions containing same” (Otsuka Pharmaceutical Co., Ltd., priority 1987, dated 1990)
In brackets after ≈: the same amount, converted by molar mass. Counter-ions that a name gives are not always drawn.

Key:
Format in all cases: cell-based
[1] = test system: M. morganii ATCC-25830; assay: antimicrobial activity in vitro, MIC by agar plate dilution method, M. morganii ATCC-25830; settings: Morganella morganii, ATCC25830, inoculum 1×10^6 cells/ml, read-out: minimal inhibitory concentration (MIC)
Method: (§1) In order to investigate the in vitro activity of the under-mentioned compounds against various bacteria, the minimal inhibitory concentration (MIC) values were determined by the agar plate dilution method [see Chemotherapy, 22, 1126-1128 (1974)].
(§2) Each test inoculum was adjusted to 1×10^6 cells/ml (O.D., 600 mμ: 0.07-0.16).

[2] = test system: P. mirabilis 1287; assay: antimicrobial activity in vitro, MIC by agar plate dilution method, P. mirabilis 1287; settings: Proteus mirabilis, inoculum 1×10^6 cells/ml, read-out: minimal inhibitory concentration (MIC)
Method: as §1, §2

[3] = test system: S. marcescens IFO-12648; assay: antimicrobial activity in vitro, MIC by agar plate dilution method, S. marcescens IFO-12648; settings: Serratia marcescens, IFO12648, inoculum 1×10^6 cells/ml, read-out: minimal inhibitory concentration (MIC)
Method: as §1, §2

[4] = test system: E. coli NIHJ; assay: antimicrobial activity in vitro, MIC by agar plate dilution method, E. coli NIHJ; settings: Escherichia coli, inoculum 1×10^6 cells/ml, read-out: minimal inhibitory concentration (MIC)
Method: as §1, §2

[5] = test system: E. coli No. 29; assay: antimicrobial activity in vitro, MIC by agar plate dilution method, E. coli No. 29; settings: Escherichia coli, inoculum 1×10^6 cells/ml, read-out: minimal inhibitory concentration (MIC)
Method: as §1, §2

[6] = test system: K. pneumoniae NCTC-9632; assay: antimicrobial activity in vitro, MIC by agar plate dilution method, K. pneumoniae NCTC-9632; settings: Klebsiella pneumoniae, NCTC9632, inoculum 1×10^6 cells/ml, read-out: minimal inhibitory concentration (MIC)
Method: as §1, §2

[7] = test system: S. aureus FDA-209-p; assay: antimicrobial activity in vitro, MIC by agar plate dilution method, S. aureus FDA-209-p; settings: Staphylococcus aureus, FDA209, inoculum 1×10^6 cells/ml, read-out: minimal inhibitory concentration (MIC)
Method: as §1, §2

[8] = test system: P. aeruginosa NCTC-10490; assay: antimicrobial activity in vitro, MIC by agar plate dilution method, P. aeruginosa NCTC-10490; settings: Pseudomonas aeruginosa, NCTC10490, inoculum 1×10^6 cells/ml, read-out: minimal inhibitory concentration (MIC)
Method: as §1, §2

Row | Structure (SMILES) | MIC [1] [µg/mL] | MIC [2] [µg/mL] | MIC [3] [µg/mL] | MIC [4] [µg/mL] | MIC [5] [µg/mL] | MIC [6] [µg/mL] | MIC [7] [µg/mL] | MIC [8] [µg/mL]
1 | Nc1nc(/C(=N/OC2CCCC2)C(=O)N[C@@H]2C(=O)N3C(C(=O)[O-])=C(CSc4cc[n+](CC(=O)NO)cc4)OC[C@H]23)cs1 [No. 9, (6S,7S)-7-[2-(2-Aminothiazol-4-yl)-2-cyclopentyloxyiminoacetamido]-3-[(1-hydroxyaminocarbonylmethyl-4-pyridinio)thiomethyl]-Δ^3 -O-2-isocephem-4-carboxylate (syn-isomer)] | 0.05 (≈ 0.0809 µM) | 0.2 (≈ 0.324 µM) | 1.56 (≈ 2.53 µM) | 0.2 (≈ 0.324 µM) | 0.1 (≈ 0.162 µM) | 0.39 (≈ 0.631 µM) | 0.39 (≈ 0.631 µM) | 3.13 (≈ 5.07 µM)
2 | CO/N=C(\C(=O)N[C@@H]1C(=O)N2C(C(=O)[O-])=C(CSc3cc[n+](CCF)cc3)OC[C@H]12)c1csc(N)n1 [No. 14, (6S,7S)-7-[2-(2-Aminothiazol-4-yl)-2-methoxyiminoacetamido]-3-[[1-(2-fluoroethyl)-4-pyridinio]thiomethyl]-Δ^3 -O-2-isocephem-4-carboxylate (syn-isomer)] | ≤ 0.025 | ≤ 0.025 | 0.1 (≈ 0.186 µM) | ≤ 0.025 | ≤ 0.025 | ≤ 0.025 | 0.2 (≈ 0.373 µM) | 1.56 (≈ 2.91 µM)
3 | Nc1nc(/C(=N/OC2CCCC2)C(=O)N[C@@H]2C(=O)N3C(C(=O)[O-])=C(CSc4cc[n+](CC(=O)N5CCNCC5)cc4)OC[C@H]23)cs1 [No. 8, (6S,7S)-7-[2-(2-Aminothiazol-4-yl)-2-cyclopentyloxyiminoacetamido]-3-[[1-(1-piperazinylcarbonylmethyl)-4-pyridinio]thiomethyl]-Δ^3 -O-2-isocephem-4-carboxylate (syn-isomer)] | 0.1 (≈ 0.149 µM) | 0.39 (≈ 0.581 µM) | 0.78 (≈ 1.16 µM) | 0.2 (≈ 0.298 µM) | 0.1 (≈ 0.149 µM) | 0.2 (≈ 0.298 µM) | 0.2 (≈ 0.298 µM) | 0.78 (≈ 1.16 µM)
4 | CO/N=C(\C(=O)N[C@@H]1C(=O)N2C(C(=O)[O-])=C(CSc3cc[n+](CC(=O)c4ccccc4)cc3)OC[C@H]12)c1csc(N)n1 [No. 1, (6S,7S)-7-[2-(2-Aminothiazol-4-yl)-2-methoxyiminoacetamido]-3-[(1-benzoylmethyl-4-pyridinio)thiomethyl]-Δ^3 -O-2-isocephem-4-carboxylate (syn-isomer)] | 0.05 (≈ 0.0821 µM) | 0.05 (≈ 0.0821 µM) | 0.1 (≈ 0.164 µM) | 0.05 (≈ 0.0821 µM) | ≤ 0.025 | 0.05 (≈ 0.0821 µM) | 0.05 (≈ 0.0821 µM) | 1.56 (≈ 2.56 µM)
5 | Nc1nc(/C(=N/OC2CCCC2)C(=O)N[C@@H]2C(=O)N3C(C(=O)[O-])=C(CSc4cc[n+](CC5CC5)cc4)OC[C@H]23)cs1 [No. 12, (6S,7S)-7-[2-(2-Aminothiazol-4-yl)-2-cyclopentyloxyiminoacetamido]-3-[(1-cyclopropylmethyl-4-pyridinio)thiomethyl]-Δ^3 -O-2- -isocephem-4-carboxylic acid ditrifluoroacetate (syn-isomer)] | 0.05 (≈ 0.0835 µM) | 0.1 (≈ 0.167 µM) | 0.78 (≈ 1.3 µM) | 0.1 (≈ 0.167 µM) | 0.05 (≈ 0.0835 µM) | 0.2 (≈ 0.334 µM) | 0.05 (≈ 0.0835 µM) | 0.39 (≈ 0.651 µM)
6 | Nc1nc(/C(=N/OC2CCCC2)C(=O)N[C@@H]2C(=O)N3C(C(=O)[O-])=C(CSc4cc[n+](CCl)cc4)OC[C@H]23)cs1 [No. 11, (6S,7S)-7-[2-(2-Aminothiazol-4-yl)-2-cyclopentyloxyiminoacetamido]-3-[(1-chloromethyl-4-pyridinio)thiomethyl]-Δ^3 -O-2-isocephem-4-carboxylate (syn-isomer)] | 0.05 (≈ 0.0843 µM) | 0.2 (≈ 0.337 µM) | 0.78 (≈ 1.32 µM) | 0.2 (≈ 0.337 µM) | 0.1 (≈ 0.169 µM) | 0.39 (≈ 0.658 µM) | 0.1 (≈ 0.169 µM) | 1.56 (≈ 2.63 µM)
7 | CN(C)C(=O)C[n+]1ccc(SCC2=C(C(=O)[O-])N3C(=O)[C@@H](NC(=O)/C(=N\OC4CCCC4)c4csc(N)n4)[C@H]3CO2)cc1 [No. 4, (6S,7S)-7-[2-(2-Aminothiazol-4-yl)-2-cyclopentyloxyiminoacetamido]-3-[(1-N,N-dimethylcarbamoylmethyl4-pyridinio)thiomethyl]-Δ^3 -O-2-isocephem-4-carboxylic acid sulfate (syn-isomer)] | 0.05 | 0.2 | 1.56 | 0.2 | 0.1 | 0.39 | 0.1 | 1.56
8 | CCC(=O)C[n+]1ccc(SCC2=C(C(=O)[O-])N3C(=O)[C@@H](NC(=O)/C(=N\OC4CCCC4)c4csc(N)n4)[C@H]3CO2)cc1 [No. 7, (6S,7S)-7-[2-(2-Aminothiazol-4-yl)-2-cyclopentyloxyiminoacetamido]-3-[(1-propanoylmethyl-4-pyridinio)thiomethyl] -Δ^3 -O-2-isocephem-4-carboxylic acid sulfate (syn-isomer)] | 0.05 | 0.1 | 0.78 | 0.2 | 0.1 | 0.39 | 0.1 | 0.78
9 | CO/N=C(\C(=O)N[C@@H]1C(=O)N2C(C(=O)[O-])=C(CSc3cc[n+](CC(=O)N4CCOCC4)cc3)OC[C@H]12)c1csc(N)n1 [No. 10, (6S,7S)-7-[2-(2-Aminothiazol-4-yl)-2-methoxyiminoacetamido]-3-[(1-morpholinocarbonylmethyl-4pyridinio)thiomethyl]-Δ^3 -O-2-isocephem-4-carboxylate (syn-isomer)] | ≤ 0.025 | ≤ 0.025 | 0.1 (≈ 0.162 µM) | ≤ 0.025 | ≤ 0.025 | ≤ 0.025 | 0.2 (≈ 0.324 µM) | 6.25 (≈ 10.1 µM)
10 | Nc1nc(/C(=N/OC2CCCC2)C(=O)N[C@@H]2C(=O)N3C(C(=O)[O-])=C(CSc4cc[n+](CC(=O)N5CCCC5)cc4)OC[C@H]23)cs1 [No. 3, (6S,7S)-7-[2-(2-Aminothiazol-4-yl)-2-cyclopentyloxyiminoacetamido]-3-[[1-(1-pyrrolidinylcarbonylmethyl)-4-pyridinio]thiomethyl]-Δ^3 -O-2-isocephem-4-carboxylic acid sulfate (syn-isomer)] | 0.05 | 0.2 | 0.78 | 0.2 | 0.1 | 0.39 | 0.1 | 0.78
11 | C[n+]1ccc(SCC2=C(C(=O)[O-])N3C(=O)[C@@H](NC(=O)/C(=N\OCC(N)=O)c4csc(N)n4)[C@H]3CO2)cc1 [No. 5, (6S,7S)-7-[2-(2-Aminothiazol-4-yl)-2-carbamoylmethoxyiminoacetamido]-3-[(1-methyl-4-pyridinio)thiomethyl]-Δ^3 -O-2-isocephem-4-carboxylate (syn-isomer)] | ≤ 0.025 | ≤ 0.025 | 0.1 (≈ 0.183 µM) | ≤ 0.025 | ≤ 0.025 | ≤ 0.025 | 0.2 (≈ 0.365 µM) | 12.5 (≈ 22.8 µM)
12 | CO/N=C(\C(=O)N[C@@H]1C(=O)N2C(C(=O)[O-])=C(CSc3cc[n+](CC(=O)N4CCCC4)cc3)OC[C@H]12)c1csc(N)n1 [No. 2, (6S,7S)-7-[2-(2-Aminothiazol-4-yl)-2-methoxyiminoacetamido]-3-[[1-(1-pyrrolidinylcarbonylmethyl)-4pyridinio]thiomethyl]-Δ^3 -O-2-isocephem-4-carboxylate (syn-isomer)] | ≤ 0.025 | ≤ 0.025 | 0.1 (≈ 0.166 µM) | ≤ 0.025 | ≤ 0.025 | ≤ 0.025 | 0.2 (≈ 0.332 µM) | 1.56 (≈ 2.59 µM)
13 | Nc1nc(/C(=N/OC2CCCC2)C(=O)N[C@@H]2C(=O)N3C(C(=O)[O-])=C(CSc4cc[n+](CCF)cc4)OC[C@H]23)cs1 [No. 13, (6S,7S)-7-[2-(2-Aminothiazol-4-yl)-2-cyclopentyloxyiminoacetamido]-3-[[1-(2-fluoroethyl)-4-pyridinio]thiomethyl]-Δ^3 -O-2-isocephem-4-carboxylate (syn-isomer)] | 0.05 (≈ 0.0847 µM) | 0.2 (≈ 0.339 µM) | 1.56 (≈ 2.64 µM) | 0.2 (≈ 0.339 µM) | 0.1 (≈ 0.169 µM) | 0.39 (≈ 0.66 µM) | 0.1 (≈ 0.169 µM) | 0.78 (≈ 1.32 µM)
